{"source": "patent US8703751B2", "about": "“Androstenediol as an indicator for assessing estrogenicity” (The Regents of the University of California, priority 2009, dated 2014)", "key": {"estrogen-alpha receptor": {"target": "T1, estrogen-alpha receptor (Homo sapiens, UniProt P03372)", "T1 construct": "human ovarian carcinoma cells (BG1) that have been stably transfected with a luciferase reporter gene plasmid; endogenous in cells; host or cells: BG1 human ovarian carcinoma cells stably transfected with an ERE-luciferase reporter plasmid", "T1 sequence (P03372 whole entry)": "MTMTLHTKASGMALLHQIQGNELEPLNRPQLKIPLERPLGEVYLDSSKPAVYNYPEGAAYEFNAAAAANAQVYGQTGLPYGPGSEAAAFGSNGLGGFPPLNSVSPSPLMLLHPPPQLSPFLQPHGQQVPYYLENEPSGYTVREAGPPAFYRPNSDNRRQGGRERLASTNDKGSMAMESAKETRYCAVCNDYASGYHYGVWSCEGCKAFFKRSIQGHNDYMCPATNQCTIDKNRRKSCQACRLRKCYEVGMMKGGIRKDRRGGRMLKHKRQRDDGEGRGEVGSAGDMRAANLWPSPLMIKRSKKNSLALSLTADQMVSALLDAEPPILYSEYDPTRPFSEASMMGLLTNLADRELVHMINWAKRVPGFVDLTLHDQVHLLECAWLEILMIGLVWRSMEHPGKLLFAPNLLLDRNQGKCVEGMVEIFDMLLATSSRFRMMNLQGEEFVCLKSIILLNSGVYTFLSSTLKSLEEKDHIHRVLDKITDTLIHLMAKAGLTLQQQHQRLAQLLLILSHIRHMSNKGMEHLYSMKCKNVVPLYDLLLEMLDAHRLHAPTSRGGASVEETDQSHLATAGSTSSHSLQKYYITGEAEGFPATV", "test": "cell-based estrogen receptor bioassay (BG1 cells, luciferase reporter under four estrogen-response elements) for estrogenicity", "settings": "for inherent estrogenic bioactivity (estrogenicity): at physiological circulating concentrations, FIG. 5 dose-response curves", "source_text": "The total estrogen receptor ligand load (ERLL) can be determined using any method known in the art. The ERLL provides an estimate of the combined biological potential of the estrogen-alpha receptor ligand load contained in the sample. […] Other cell lines can find use. […] The detectable signal of any reporter gene known in the art can be used, including without limitation luciferase and fluorescent proteins (e.g., green fluorescent protein, yellow fluorescent protein, blue fluorescent protein, red fluorescent protein, etc.). In the case where […] is used as the reporter gene, […] substrate is added to the culture and the luciferase activity induced by the standards and/or test sample are measured using a Luminometer.\nThis assay assesses the total estrogenic bioactivity contained in a serum sample. Thus and estimate of the combined biological potential of the estrogen-alpha receptor ligand load (ERLL) contained in the sample. Thus the bioactivity of a sample will be appropriately estimated. Briefly, human ovarian carcinoma cells (BG1) that have been stably transfected with a luciferase reporter gene plasmid under the regulation of four estrogen-response elements were used to measure total bioactive estrogens. BG1 cells were cultured in Alpha Minimum Essential Medium (Alpha-MEM) with 10% fetal bovine serum (FBS). When cells reached 80% confluence, cells were trypsinized (0.05% trypsin-EDTA) and well dispersed in phenol-red free Dulbecco's […] (DMEM) supplemented with 10% dextran charcoal treated FBS (DCC-FBS). Suspended cells (0.05 mL/well; density of 25,000 cells/0.05 mL) were added to 96-well tissue culture plates containing 0.15 mL/well of phenol-red free DMEM supplemented with 10% DCC-FBS. On each of the two subsequent days (Days 2 and 3), the media in each well was removed and replaced with 0.2 mL phenol-red free DMEM supplemented with 10% DCC-FBS. […] To compensate for any serum matrix effects, DCC-FBS was added to the E2 standard preparation at a proportion equal to that of the serum content of the sample preparation (5% v/v). Serum samples were diluted in DCC-FBS with a final serum content of 5% (v/v). Plates were then incubated for an additional 18 hours. Media was then removed and 0.1 mL cell lysis buffer added to each well and allowed to incubate for 20 minutes. Cell lysates (0.04 mL) were transferred to 96-well Microfluor II plates (Fisher Scientific, Santa Clara, Calif.). Luciferin substrate was injected into each well and the luciferase activity induced by the standards and/or test serum was measured by a Veritas Luminometer (Turner Biosystems, Sunnyvale, Calif., USA).\nThe third element for developing the concept was that of gaining additional insight into the innate properties of all of the adrenal steroids that were associated with the rise of DS during the menopausal transition. For these investigations newly developed in vitro bioassays were used to adjudicate the estrogenicity of all for adrenal steroids (i.e., T, A-dione, 5A-diol and DHEA)."}, "[1]": {"settings": "cited from earlier work"}, "[2]": {"settings": "local, intravaginal suppository; cited from earlier work"}, "[3]": {"settings": "25 mg oral dose for three months; from 0.32 ng/mL before (doubling); cited from earlier work"}, "[4]": {"settings": "transdermal administration; 60-65 year old women; cited from earlier work"}, "[5]": {"settings": "oral 50 mg/day for one year, women over 70 years old"}}, "note": "“Also recorded” adds a separate entry of the source."}
{"smiles": "C[C@]12CC[C@H]3[C@@H](CC=C4C[C@@H](O)CC[C@@]43C)[C@@H]1CC[C@@H]2O", "note": "[5A-diol, (3-beta,17-beta)-Androst-5-ene-3,17-diol]", "values": [{"measurement": "estrogenic or not (discussion statement)", "setting": "estrogen-alpha receptor", "result": "is estrogenic"}, {"measurement": "inherent estrogenic bioactivity (estrogenicity)", "setting": "estrogen-alpha receptor", "result": "substantial inherent estrogenic bioactivity"}, {"measurement": "inherent estrogenic bioactivity (estrogenicity)", "setting": "estrogen-alpha receptor; listed as androstenediol", "result": "significant “estrogenicity” at physiological levels"}]}
{"smiles": "C[C@]12CCC(=O)C=C1CC[C@@H]1[C@@H]2CC[C@]2(C)C(=O)CC[C@@H]12", "note": "[A-dione, androstendione]", "values": [{"measurement": "inherent estrogenic bioactivity (estrogenicity)", "setting": "estrogen-alpha receptor", "result": "only 5A-diol and estradiol had substantial inherent estrogenic bioactivity"}]}
{"smiles": "C[C@]12CC[C@H](O)CC1=CC[C@@H]1[C@@H]2CC[C@]2(C)C(=O)CC[C@@H]12", "note": "[DHEA, dehydroepiandrosterone]", "values": [{"measurement": "BMD and bone resorption", "setting": "[1]; 50 mg daily oral, adults 55-85 years of age, in women but not men", "result": "only modest effect"}, {"measurement": "muscle status", "setting": "[1]; 50 mg/day oral, one year, men and women between 60 and 80 years of age", "result": "no positive effect"}, {"measurement": "bone turnover", "setting": "[1]; [5]", "result": "modestly decrease"}, {"measurement": "libido", "setting": "[1]; [5]", "result": "increase"}, {"measurement": "skin hydration", "setting": "[1]; [5]", "result": "improve"}, {"measurement": "age-related vaginal atrophy", "setting": "[2]", "result": "highly efficient treatment"}, {"measurement": "change in circulating sex steroid concentrations", "setting": "[2]", "result": "no significant change"}, {"measurement": "circulating concentration of A-diol after treatment", "setting": "[3]", "result": 0.66, "unit": "ng/mL"}, {"measurement": "estrogenic or not (discussion statement)", "setting": "estrogen-alpha receptor", "result": "not estrogenic"}, {"measurement": "inherent estrogenic bioactivity (estrogenicity)", "setting": "estrogen-alpha receptor", "result": "only 5A-diol and estradiol had substantial inherent estrogenic bioactivity; also recorded: does not"}, {"measurement": "increase in circulating DS", "setting": "[4]", "result": "five fold increase"}, {"measurement": "increase in circulating androstendiol glucuronides", "setting": "[4]", "result": "less than a two and one-half fold increase"}]}
{"smiles": "C[C@]12CC[C@H]3[C@@H](CCC4=CC(=O)CC[C@@]43C)[C@@H]1CC[C@@H]2O", "note": "[T, testosterone]", "values": [{"measurement": "inherent estrogenic bioactivity (estrogenicity)", "setting": "estrogen-alpha receptor", "result": "only 5A-diol and estradiol had substantial inherent estrogenic bioactivity"}]}
